Publication PMC9511493, “2-(Fluoromethoxy)-4′-(S-methanesulfonimidoyl)-1,1′-biphenyl (UCM-1306), an Orally Bioavailable Positive Allosteric Modulator of the Human Dopamine D1 Receptor for Parkinson’s Disease” (Journal of Medicinal Chemistry, 2022)
Where “and” joins values, the source holds several entries; their conditions need not be identical. Equal entries are not always repeated.

Tests used:
CYP2D6 = biological target: T1, CYP2D6 (Homo sapiens, UniProt P10635); experiment: cytochrome inhibition, fluorescence assay, CYP2D6; assay type: in vitro ADME
T1 construct: host or cells: insect cell microsomes
T1 sequence (P10635 whole entry): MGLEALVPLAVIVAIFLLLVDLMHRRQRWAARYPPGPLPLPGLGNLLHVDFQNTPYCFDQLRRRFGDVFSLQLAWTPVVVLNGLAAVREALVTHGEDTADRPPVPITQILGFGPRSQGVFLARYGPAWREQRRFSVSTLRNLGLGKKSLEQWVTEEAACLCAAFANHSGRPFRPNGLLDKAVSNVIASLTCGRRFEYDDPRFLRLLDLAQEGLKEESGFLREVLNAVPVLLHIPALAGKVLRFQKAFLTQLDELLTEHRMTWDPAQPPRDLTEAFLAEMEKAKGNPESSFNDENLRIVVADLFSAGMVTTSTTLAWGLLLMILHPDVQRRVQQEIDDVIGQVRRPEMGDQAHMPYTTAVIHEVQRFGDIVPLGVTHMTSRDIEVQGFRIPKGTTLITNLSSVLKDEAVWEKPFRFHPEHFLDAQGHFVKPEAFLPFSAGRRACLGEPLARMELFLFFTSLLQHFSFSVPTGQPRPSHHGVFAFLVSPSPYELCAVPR
Protocol: (§1) Cytochrome inhibition. The objective of this study was to screen the potential of test […]
(§2) performed using recombinant isoforms CYP1A2, CYP2C9, CYP2C19, CYP2D6, and CYP3A4, and probe substrates with fluorescent detection.
(§3) Assays were conducted in a 200 µL volume in 96-well microtiter plates (COSTAR 3915).
(§4) Addition of cofactor-buffer mixture (KH2PO4 buffer, 1.3 mM NADP, 3.3 mM MgCl2, 3.3 mM glucose -6- phosphate, and 0.4 U/mL glucose -6- phosphate dehydrogenase), supersomes control, standard inhibitors (furafyline, tranylzypromine, ketoconazole, sulfaphenazole, and quinidine from Sigma Aldrich) and test compound to the plate was carried out by a liquid handling station (Zephyr Caliper). The plate was then pre-incubated at 37 °C for 5 min, and the reaction was initiated by the addition of the pr e - warmed enzyme/substrate (E/S) mix. […]
(§5) Fluorescence per well was measured using a fluorescence plate reader (Tecan Infinite M1000 pro) and percentage of inhibition was calculated. hERG ion channel inhibition. […]

CYP1A2 = biological target: T2, CYP1A2 (Homo sapiens, UniProt P05177); experiment: cytochrome inhibition, fluorescence assay, CYP1A2; assay type: in vitro ADME
T2 construct: host or cells: insect cell microsomes
T2 sequence (P05177 1-516): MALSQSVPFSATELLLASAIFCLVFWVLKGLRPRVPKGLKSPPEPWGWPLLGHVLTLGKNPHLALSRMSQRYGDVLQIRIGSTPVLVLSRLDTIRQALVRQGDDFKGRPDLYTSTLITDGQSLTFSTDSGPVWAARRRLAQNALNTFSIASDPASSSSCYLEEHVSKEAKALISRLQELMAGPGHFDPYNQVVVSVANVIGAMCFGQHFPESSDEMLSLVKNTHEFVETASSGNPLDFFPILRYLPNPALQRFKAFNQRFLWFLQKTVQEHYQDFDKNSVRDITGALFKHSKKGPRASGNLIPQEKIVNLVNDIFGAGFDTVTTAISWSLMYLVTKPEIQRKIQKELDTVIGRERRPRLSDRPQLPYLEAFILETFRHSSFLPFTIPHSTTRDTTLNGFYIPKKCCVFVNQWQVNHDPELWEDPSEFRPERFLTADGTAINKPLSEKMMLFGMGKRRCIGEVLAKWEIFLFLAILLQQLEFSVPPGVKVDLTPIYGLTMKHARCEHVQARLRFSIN
Protocol: as §1, §2, §3, §4, §5

human D1R = biological target: T3, human D1R (Homo sapiens, UniProt P21728); experiment: potentiator-mode cAMP assay (HTRF) in SK-N-MC neuroblastoma cells endogenously expressing human D1R; assay type: cell-based; conditions: for potentiation of DA effect at different fixed concentrations: 3: 0.1–10 μM, 26: 1, 5 and 10 μM; for cAMP response in the absence of DA (agonist activity): no DA
T3 construct: endogenously expressed human D1R in the SK-N-MC cell line (ATCC); host or cells: SK-N-MC human neuroblastoma cells
T3 sequence (P21728 whole entry): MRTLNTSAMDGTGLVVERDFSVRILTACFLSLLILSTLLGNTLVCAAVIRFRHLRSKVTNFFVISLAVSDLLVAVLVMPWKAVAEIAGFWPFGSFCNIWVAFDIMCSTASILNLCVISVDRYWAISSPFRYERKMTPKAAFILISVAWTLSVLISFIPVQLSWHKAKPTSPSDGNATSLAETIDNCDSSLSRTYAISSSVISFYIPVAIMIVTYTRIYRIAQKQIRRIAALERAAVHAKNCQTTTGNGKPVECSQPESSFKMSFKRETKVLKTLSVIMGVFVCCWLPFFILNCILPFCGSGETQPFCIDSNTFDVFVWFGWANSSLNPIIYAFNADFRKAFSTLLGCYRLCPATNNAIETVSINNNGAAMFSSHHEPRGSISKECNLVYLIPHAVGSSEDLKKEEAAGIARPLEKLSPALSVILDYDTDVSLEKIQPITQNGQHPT

human dopamine D1R = biological target: T4, human dopamine D1R (Homo sapiens, UniProt P21728); experiment: radioligand binding assay with [3H]SCH23390 at human D1R membranes
T4 construct: purchased Perkin Elmer
T4 sequence (P21728 whole entry): as above
Protocol: Binding assays were carried out by using plasma membranes (12 μg/well) expressing human dopamine D1R (Perkin Elmer). […] After this time, the well content was filtered through a Millipore manifold and membranes were washed four times with assay buffer. The plate was dried and radioactivity was measured in a Microbeta Trilux liquid scintillation reader (Perkin Elmer). Non-specific binding was determined in the presence of 1 μM (+)-butaclamol. Data were normalized to the percentage of specific binding and fitted to a 4-parameter logistic equation using with Prism v2.1 software (GraphPad Inc). For the calculation of the affinity ratio of DA in the presence of the allosteric modulators, data were fitted according to the equations reported by Lazareno and Birdsall.[44]

CYP3A4 = biological target: T5, CYP3A4 (Homo sapiens, UniProt P08684); experiment: cytochrome inhibition, fluorescence assay, CYP3A4; assay type: in vitro ADME
T5 construct: host or cells: insect cell microsomes
T5 sequence (P08684 whole entry): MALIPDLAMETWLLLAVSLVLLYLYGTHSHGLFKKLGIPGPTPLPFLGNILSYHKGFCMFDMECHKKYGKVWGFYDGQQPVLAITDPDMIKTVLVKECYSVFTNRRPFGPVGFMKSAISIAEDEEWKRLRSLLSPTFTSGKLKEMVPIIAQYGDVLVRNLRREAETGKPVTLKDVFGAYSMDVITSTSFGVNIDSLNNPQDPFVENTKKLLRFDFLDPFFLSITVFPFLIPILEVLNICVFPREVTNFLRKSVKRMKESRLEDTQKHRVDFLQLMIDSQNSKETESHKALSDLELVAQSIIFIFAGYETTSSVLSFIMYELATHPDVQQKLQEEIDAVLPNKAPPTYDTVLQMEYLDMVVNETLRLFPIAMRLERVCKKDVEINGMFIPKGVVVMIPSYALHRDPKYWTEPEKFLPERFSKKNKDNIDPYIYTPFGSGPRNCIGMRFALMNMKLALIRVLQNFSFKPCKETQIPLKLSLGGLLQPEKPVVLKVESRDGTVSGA
Protocol: as §1, §2, §3, §4, §5

[1] = parallel artificial membrane permeability assay (PAMPA); assay type: in vitro ADME; conditions: read-out: P
Protocol: Parallel artificial membrane permeability assay (PAMPA). The assessment of the membrane permeability of selected compounds and reference compounds propranolol and metoprolol was performed in a commercially available 96-well Corning Gentest pre-coated PAMPA plate system (Cultek S.L.U., Spain). Prior to use, the pre-coated PAMPA plate system was warmed to rt for 30 min and 300 μL of 200 μM solution of tested compound in 2% DMSO in PBS were added to the wells in the receiver (donor) plate.
Then, 200 μL of PBS were added to the wells in the filter (acceptor) plate. The filter plate was placed on the receiver plate by slowly lowering the pre-coated PAMPA plate until it sits on the receiver plate. […] The final concentrations of compound in both donor and acceptor wells were analyzed by HPLC-MS using SIM mode, and quantification was estimated by using the peak area integration normalized with an internal standard. Permeability value of the compounds was calculated using the following formula: P (cm/s) = {-ln[1-CA(t)/Ceq]}/[A*(1/VD+1/VA)*t], where A = filter area (0.3 cm2), VD = donor well volume (0.3 mL), VA = acceptor well volume (0.2 mL), t = incubation time (s), CA(t) = compound concentration (μM) in acceptor well at time t, CD(t) = compound concentration (μM) in donor well at time t, and Ceq = […]

[2] = percentage of inhibition at 10 μM

CYP2D6 (%) (CYP2D6; [2])	CYP1A2 (%) (CYP1A2; [2])	reversibility of the potentiation (human D1R; 10 μM for 10 min then washing with assay buffer)	CYP34A (%) (CYP3A4; [2])	SMILES	CYP2D6 (%) (CYP2D6; Table S1, concentration not given)	IC50 (CYP1A2)	potentiation of DA effect at different fixed concentrations (human D1R)	cAMP response in the absence of DA (agonist activity) (human D1R)	displacement of the radioligand [3H]SCH-23390 (human dopamine D1R; at 10 μM)	IC50 (CYP3A4; read-out: CYP34A (IC50))	Papp at 5 h, 200 μM [1]	receptor desensitization (human D1R; preincubation for 1 h with 10 μM compound)	affinity ratio of [3H]SCH-23390 (human dopamine D1R; in the presence of 4 μM DA)
				O=Cc1ccc(-c2ccccc2OCF)cc1 [Compound 3, 2′-(Fluoromethoxy)[1,1′-biphenyl]-4-carbaldehyde]	inactive	830 ± 170 nM	concentration-dependent potentiation of DA effect	No cAMP response	12%	2820 ± 320 nM	20 ×10⁻⁶ cm/s		
3% and 3 ± 1%	49 ± 2%	reversible effect	9% and 9 ± 1%	CS(=N)(=O)c1ccc(-c2ccccc2OCF)cc1 (stereo not shown) [Compound 26, 2-(Fluoromethoxy)-4′-(S-methanesulfonimidoyl)-1,1′-biphenyl]			potentiation of the DA Emax in a concentration-dependent manner	no cAMP response			24 ×10⁻⁶ cm/s	does not induce receptor desensitization	concentration-dependent increase of the affinity ratio values
